Each structure is given as a SMILES string. Activity calls are given as the source filed them. How the calls were made is not given here.

As usually defined, the Kd is the equilibrium constant for the complex coming apart.

The target of the assay is Ubiquitin-conjugating enzyme E2 N (Homo sapiens) (UniProt P61088). Briefly: NMR detection of UBE2N ligand binding – biophysical, purified protein (AID 1552). To be noted: NMR binding to purified UBE2N.
Sequence of Ubiquitin-conjugating enzyme E2 N (Homo sapiens) (P61088 whole entry, looked up): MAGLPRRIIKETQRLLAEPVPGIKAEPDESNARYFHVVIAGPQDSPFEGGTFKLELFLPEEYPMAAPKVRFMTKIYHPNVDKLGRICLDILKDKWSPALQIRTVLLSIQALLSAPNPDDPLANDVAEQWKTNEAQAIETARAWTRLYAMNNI
Consider `COc1c2ccoc2c(OC)c2oc(=O)ccc12`, for which the Kd was > 4 mM (inactive).

For `Cc1cc([N+](=O)[O-])cc[n+]1[O-]`, the Kd was > 4 mM (inactive).

For the compound `O=C(O)c1ccc2[nH]c3c(c2c1)CSCC3`, the Kd was > 4 mM (inactive). The same measure for `Nc1ncnc2c1ncn2[C@@H]1O[C@H](CO)[C@@H](O)[C@H]1O`: > 4 mM (inactive); for `N[C@@H](CCC(=O)N[C@@H](CS)C(=O)NCC(=O)O)C(=O)O`: > 4 mM (inactive); for `NC(=O)CSc1nnc2ccc(-c3ccco3)nn12`: > 4 mM (inactive). The same measure for `Nc1ccc(Oc2ccccc2)nc1`: > 4 mM (inactive); for `NCc1ccccc1N1CCOCC1`: > 4 mM (inactive). With `Cc1nnsc1-c1onc(C)c1C(=O)O`, the Kd was > 4 mM (inactive).

As for `Cc1nc2ccccc2c2c1C(=O)N(C)C2=O`, the Kd was > 4 mM (inactive). `c1ccc2c(c1)CN1CCCC1=N2`: the Kd is > 4 mM (inactive). The result for `O=C(O)C1CCN(C(=O)c2cccs2)CC1` reads > 4 mM (inactive); that for `NC(=O)CSc1nc2[nH]ncc2c(=O)[nH]1`, > 4 mM (inactive).

For the compound `O=c1c2ccccc2nc(-c2ccco2)n1-c1nccs1`, the Kd is > 4 mM (inactive). The result for `Cc1nc(CC(=O)O)c(-c2ccccc2)s1` reads > 4 mM (inactive); that for `CSc1nnc2c(n1)OC=Nc1ccccc1-2`, > 4 mM (inactive); that for `O=C(O)C1COc2ccccc2C1` (centres undefined), > 4 mM (inactive). The same measure for `COC(=O)c1[nH]c2ccccc2c1C(=O)OC`: > 4 mM (inactive); for `COc1c2ccccc2nc2occc12`: > 4 mM (inactive); for `CC(=O)c1ccc(NC(=O)c2ocnc2C)cc1`: > 4 mM (inactive). `CCOC(=O)N1CCN(c2ncnc3c2cnn3C)CC1`: the Kd was > 4 mM (inactive). The same measure for `Cc1cc(C(=O)NCc2cccs2)cs1`: > 4 mM (inactive); for `COc1ccc(-c2nnsc2N)cc1`: > 4 mM (inactive); for `Cc1ccc(-c2nnc3sc(-c4ccncc4)nn23)cc1`: > 4 mM (inactive).

Turning to `Cc1ccccc1NC(=O)CC1NCCNC1=O` (centres undefined), the Kd was > 4 mM (inactive). The result for `COc1c(O)cc2c(-c3ccccc3)cc(=O)oc2c1OC` reads > 4 mM (inactive); that for `Cc1nc2ccc(C(=O)N3CCSCC3)cc2s1`, > 4 mM (inactive); that for `Nc1ncnc2nc(SCCN3CCCCC3)[nH]c12`, > 4 mM (inactive).

Take `O=C(O)CCS(=O)(=O)c1ccccc1`: the Kd is > 4 mM (inactive). Take `CSc1cc(C)[nH]c(=O)n1`: the Kd is > 4 mM (inactive). The result for `C=C1C2CC[C@@]3(C)[C@H](c4ccoc4)OC(=O)C[C@]13O[C@H]1CC(=O)C(C)(C)C(CC(=O)OC)C21C` (some centres undefined) reads > 4 mM (inactive); that for `Nc1cc(=O)[nH]c(=O)n1Cc1ccco1`, > 4 mM (inactive). As to `Nc1nnc(Cc2ccc(Cl)cc2)s1`, the Kd is > 4 mM (inactive). As for `CC(=O)c1cc(C)ccc1O`, the Kd is > 4 mM (inactive). On to `CC(=O)O[C@@H]1CC2C(C)(CC[C@H](O)C2(C)C)C2CC[C@]3(C)C(=CC(=O)O[C@H]3c3ccoc3)C21C` (some centres undefined), for which the Kd was > 4 mM (inactive). As for `Clc1ccc(-n2ccnc2)nn1`, the Kd is > 4 mM (inactive).

Regarding `Nc1ccc2c(c1)COc1ccccc1O2`, the Kd is > 4 mM (inactive). The same measure for `CC(C)=CC(=O)Nc1ccc2c(c1)OCO2`: > 4 mM (inactive); for `C=C1C(N)CC2CC1C2(C)C` (centres undefined): > 4 mM (inactive). Regarding `COc1ccc(S(N)(=O)=O)cc1`, the Kd is > 4 mM (inactive). For the compound `O=C(O)CNCC(O)Cn1c2ccccc2c2ccccc21` (centres undefined), the Kd is > 4 mM (inactive).

With `CC1SC(=NC(=O)c2ccco2)NC1=O` (centres undefined), the Kd was > 4 mM (inactive). Consider `O=C(O)c1cccc2nsnc12`, for which the Kd was > 4 mM (inactive). The result for `CC(=O)c1ccc(CC2SC(N)=NC2=O)cc1` (centres undefined) reads > 4 mM (inactive); that for `Cn1nnc2cc(C(=O)O)ccc21`, > 4 mM (inactive); that for `O=c1cc(-c2cc(O)c(O)c(O)c2)oc2cc(O)cc(O)c12`, > 4 mM (inactive). The result for `CCn1c(C)c(C(C)=O)c(N2CCOCC2)nc1=S` reads > 4 mM (inactive); that for `NC(=O)CN1CC(=O)NC(=O)C1`, > 4 mM (inactive). The same measure for `CC(=O)Nc1nc(C)c(C(C)=O)s1`: > 4 mM (inactive). As for `COc1cc(OC)c2c(c1)O[C@H](c1ccc(OC)c(OC)c1)[C@@H](O)C2`, the Kd is > 4 mM (inactive). For the compound `COc1ccc(NS(=O)(=O)c2ccc(N)cc2)nn1`, the Kd was > 4 mM (inactive).

For the compound `NC(=S)NC(=O)CN1C(=O)c2ccccc2C1=O`, the Kd is > 4 mM (inactive). Consider `Nc1ccc(C2SCCS2)cc1`, for which the Kd was > 4 mM (inactive).

Consider `O=C1N=c2ccccc2=C1c1[nH]c(=S)[nH]c1O`, for which the Kd is > 4 mM (inactive). As for `CC(=O)/C=C\[C@@H]1[C@@]2(C)CCCC(C)(C)C2CC[C@@]1(C)O` (some centres undefined), the Kd is > 4 mM (inactive). The result for `NCc1csc(-c2cccs2)n1` reads > 4 mM (inactive); that for `Cc1cccc(-n2c(N)cc(=O)[nH]c2=S)c1`, > 4 mM (inactive); that for `Cn1c(=O)c2ccccc2n(Cc2ccccc2F)c1=O`, > 4 mM (inactive). Consider `CCSc1nc(=S)n(CC)c(C)c1C(C)=O`, for which the Kd was > 4 mM (inactive).

As for `Cc1ccc(S(=O)(=O)/N=C2\NC(=O)CS2)cc1`, the Kd is > 4 mM (inactive). The same measure for `C=C1CSc2nc(=O)c3c(C)c(C)sc3n21`: > 4 mM (inactive). As to `CC(=O)c1ccc(N2C(=O)C(C(C)C)NC2=S)cc1` (centres undefined), the Kd was > 4 mM (inactive).

Turning to `O=C(O)c1ccc2occc2c1`, the Kd is > 4 mM (inactive).

Turning to `N/C(=N/O)C1COc2ccccc2O1` (centres undefined), the Kd is > 4 mM (inactive).

As to `CN(C)c1ccc2c(=O)[nH][nH]c(=O)c2c1`, the Kd is > 4 mM (inactive). The result for `O=C(Nn1c(=S)[nH]c2ccccc2c1=O)c1ccncc1` reads > 4 mM (inactive); that for `Cc1cc(O)c(C=O)c(O)c1C(=O)O`, > 4 mM (inactive); that for `O=C1OCCC1Sc1nc2ccccc2c(=O)[nH]1` (centres undefined), > 4 mM (inactive).

With `CC[C@@H]1[C@@H](O)N2C3C[C@H]1C1C(O)[C@]4(C[C@@H]12)c1ccccc1N(C)[C@@H]34` (some centres undefined), the Kd was > 4 mM (inactive).

`CCOC(=O)c1nc2ccccc2c(=O)n1N`: the Kd is > 4 mM (inactive). The result for `CC1(c2ccncc2)NC(=O)NC1=O` (centres undefined) reads > 4 mM (inactive); that for `CC(=O)O[C@H]1C[C@@H](OC(C)=O)C(C)(C)C2CC(=O)[C@]3(C)C(CC[C@@]4(C)[C@H](c5ccoc5)OC(=O)[C@H]5O[C@]543)[C@]21C` (some centres undefined), > 4 mM (inactive). The same measure for `O=C(CCc1ccc(O)cc1)c1c(O)cc(O)cc1O`: > 4 mM (inactive).

Take `OCCCc1nc2ccccc2[nH]1`: the Kd was > 4 mM (inactive). On to `O=C(c1ccc(F)cc1)C1CCNCC1`, for which the Kd is > 4 mM (inactive). For `NC(=O)c1ccc(NC(=O)C2CC2)cc1`, the Kd was > 4 mM (inactive). The same measure for `COc1cc(OC)c2c(=O)c(-c3ccccc3)coc2c1`: > 4 mM (inactive); for `COc1cc(C(C)=O)ccc1OC(=O)N1CCOCC1`: > 4 mM (inactive). The result for `Nc1ncnc2c1ncn2C1C[C@H](O)[C@@H](CO)O1` (some centres undefined) reads > 4 mM (inactive); that for `CSCCNC(C)=O`, > 4 mM (inactive).

Take `CC1(C)C(=O)[C@@H]2O[C@@H]2[C@@]2(C)C1C[C@@H](O)[C@]1(C)C2CC[C@@]2(C)[C@H](c3ccoc3)OC(=O)C3OC321` (some centres undefined): the Kd is > 4 mM (inactive). As to `CC(=O)Nc1ccccc1OCC(N)=O`, the Kd was > 4 mM (inactive).

Turning to `Cc1nnc2sc(-c3ccco3)nn12`, the Kd was > 4 mM (inactive). The result for `Cc1cc(C)nc(/N=C(\N)N2CCc3ccccc32)n1` reads > 4 mM (inactive); that for `Cc1nnsc1C(=O)Nc1ccc(C(N)=O)cc1`, > 4 mM (inactive); that for `CCc1noc(C)c1C(=O)N1CCOCC1`, > 4 mM (inactive). The result for `Cn1nnc2c(Cl)ncnc21` reads > 4 mM (inactive); that for `CCNC(CC(=O)Nc1ccc(F)cc1)C(=O)O` (centres undefined), > 4 mM (inactive); that for `Cc1ccc(Nc2nc(N)nc(CC#N)n2)cc1`, > 4 mM (inactive). The same measure for `N[C@@H](Cc1ccc(O)c(O)c1)C(=O)O`: > 4 mM (inactive); for `O=C1CC(=O)N(c2cccc(Cl)c2)N1`: > 4 mM (inactive); for `OCc1ccc(OC(F)(F)F)cc1`: > 4 mM (inactive). In the case of `O=c1cccc2n1CC1CC2CN2CCCC[C@@H]12` (some centres undefined), the Kd is > 4 mM (inactive). The same measure for `CC(C)=CCC/C(C)=C/CC/C(C)=C/CC/C(C)=C/CC/C(C)=C/CC/C(C)=C/CC/C(C)=C/CC/C(C)=C/CC/C(C)=C/CO`: > 4 mM (inactive); for `c1ccc(Cn2cccc2)nc1`: > 4 mM (inactive); for `CC12CN3CC(C)(CN(C1)C3c1cccs1)C2O` (centres undefined): > 4 mM (inactive). The result for `CN(C)C(=O)C12CCC(C)(C(=O)O1)C2(C)C` (centres undefined) reads > 4 mM (inactive).

Take `NC(=O)CN1CCC(c2nc3ccccc3[nH]2)CC1`: the Kd was > 4 mM (inactive). The result for `Cc1occc1C(=O)Nc1nnc(-c2ccncc2)s1` reads > 4 mM (inactive); that for `Nc1[nH]c(=S)[nH]c(=O)c1-c1ccccc1`, > 4 mM (inactive); that for `COC(=O)C1=C(C)N(Cc2ccco2)C(=O)C1`, > 4 mM (inactive). The result for `CC(O)(C(=O)O)c1ccccc1` (centres undefined) reads > 4 mM (inactive).

With `Cc1cccc(-n2c(N)cc(=O)[nH]c2=S)c1C`, the Kd was > 4 mM (inactive).

With `CCOC(=O)c1c(C)nc2sccn12`, the Kd was > 4 mM (inactive).

These data come from PubChem BioAssay AID1552 (Sanford-Burnham Center for Chemical Genomics, 2009).
